This is an account of results in patent US12661357B2, “Use of pyrido[1,2-a]pyrimidone analogue” (GUANGZHOU JOYO PHARMATECH CO., LTD, priority 2021, dated 2026).

As a reminder, the T/C is the result in the treated group divided by that in the control group, in per cent. As a reminder, the TGI is the reduction of tumour growth relative to the control group. The term IC50 denotes the concentration that inhibits the measured activity by half.

Experiment [1] concerns human-derived colorectal cancer CO-04-0032 subcutaneous xenograft tumor. In words: In vivo efficacy, CO-04-0032 subcutaneous xenograft tumor model. Set-up: species or system BALB/c nude mice. To be noted: for Tumor volume (Day 28): mean ± SEM. From the text:
Experimental purpose: Study the in vivo efficacy of the test drug on human-derived colorectal cancer CO-04-0032 subcutaneous xenograft tumor model in nude mice.
Experimental design: • (1) Animals: BALB/c nude mice, female, 6 weeks old, weighing 16-18 grams. […] CO-04-0032 was a PDX model of human-derived colon cancer independently developed by WuXi AppTec New Drug Development Co., Ltd. See Table 5 below for the experimental grouping and dosing regimen.

Experiment [2] has as its system CAL-27 head and neck cancer cells. As to the kind of experiment: CTG cell proliferation IC50, CAL-27. It counts as cell-based. To be noted: CAL-27 cells, 72 hours, read-out: Absolute IC50. From the text: (§1) • 2). IC50 value: the concentration of inhibitor when 50% inhibitory effect was achieved; • 3). CAL-27 and RPMI 2650: head and neck cancer cell models; HepG2: hepatocellular cancer cells. CAL-27, RPMI 2650 and HepG2 cells were purchased from ATCC, where ATCC® No. was CRL-2095™, CCL-30™, HB-8065™, respectively. • 4). Both KYSE-150 and TE-1 were esophageal cancer cell models. The KYSE-150 cell line was purchased from DSMZ (German Collection of Microorganisms and Cell Cultures), and the DSMZ No. was ACC375; the TE-1 cell line was purchased from National Collection of Authenticated Cell Cultures, catalog number: TCHu89. • 5). RPMI 1640/F12 medium was a 1:1 mixture of RPMI 1640 medium and F12 medium. • 6). The percentages in 10% FBS in Table 1 and Table 2 were volume percentages. (2) Reagents • 1). FBS (fetal bovine serum) (purchased from ExCell, product number: FND500); • 2). MEM medium (purchased from Hyclone, product number: SH30024.01; • 3). DMEM medium (purchased from Gibco, product number: C11995500BT); • 4). MEM NEAA (purchased from Gibco, product number: 11140-050); • 5). RPMI1640 Culture medium (purchased from Gibco, product number: 11875-119); • 6). F12 Culture medium (purchased from Gibco, product number: 11765-054); (3) Test Article and Positive Control Article
(§2) 2. CTG Method was Used to Determine the Cell Proliferation IC50 of the Compound
(§3) • Step 1: Cells in exponential growth phase were harvested, and viable cells were counted with a Vi-Cell XR cytometer. The cell suspension was adjusted to an appropriate concentration with medium. […] After 10 minutes, the fluorescence signal value was measured with an Envision2104 plate reader. […]
(§4) Cell survival rate was calculated using the formula: Vsample/Vvehicle control×100%. Where, Vsample was the reading of the drug treatment group, and Vvehicle control was the average value of the solvent control group. GraphPad Prism 5.0 software was used, and a S-type dosage-survival rate curve was drawn using a nonlinear regression model and IC50 value was calculated.

The subject of experiment [3] is RPMI2650 head and neck cancer cells. In words: CTG cell proliferation IC50, RPMI 2650. The experiment is classed as cell-based. To be noted: 72 hours, read-out: Absolute IC50.
Text: as §1, §2, §3, §4

Experiment [4] relates to KYSE-150 esophageal cancer cells. In words: CTG cell proliferation IC50, KYSE-150. To be noted: KYSE-150 cells, read-out: Absolute IC50. It counts as cell-based.
Text: as §1, §2
(§5) • Step 1: Cells in exponential growth phase were harvested, and viable cells were counted with a Vi-Cell XR cytometer. The cell suspension was adjusted to an appropriate concentration with medium. 90 μL of cell suspension was added to each well of a 96-well cell culture plate, and the final cell concentration was 1500-6000 cells/well. • Step 2: The initial concentration of administration of compound I is 3 μM, and the initial concentration of administration of the control drug Alpelisib and Cisplatin was 10 μM, serially diluted 3-fold, a total of 9 concentration gradients and a DMSO control, the final concentration of DMSO in each well was 0.1%, placed in a 37° C., 5% CO2 incubator for 72 hours. • Step 3: After 72 hours of drug treatment, 50 μL (½ culture volume) CTG solution that was melted and equilibrated to room temperature was added to each well according to the CTG operation instructions. […] After 10 minutes, the fluorescence signal value was measured with an Envision2104 plate reader. […]
as §4

Experiment [5] has as its system TE-1 esophageal cancer cells. As to the kind of experiment: CTG cell proliferation IC50, TE-1. It counts as cell-based. The following applies: TE-1 cells, read-out: Absolute IC50.
Text: as §1, §2, §5, §4

[6] abbreviates: 5 mg/kg, oral, once a day for 28 days.
Setting [7] is: 20 mg/kg, vein, once a week, day 28.

Read-outs that look alike come from different tables or passages of the source. Where only a bound is given, the exact number is not on record here.

For `CO[C@H]1C[C@@H]2CC[C@@H](C)[C@@](O)(O2)C(=O)C(=O)N2CCCC[C@H]2C(=O)O[C@H]([C@H](C)C[C@@H]2CC[C@@H](OCCO)[C@H](OC)C2)CC(=O)[C@H](C)/C=C(\C)[C@@H](O)[C@@H](OC)C(=O)[C@H](C)C[C@H](C)/C=C/C=C/C=C/1C` [Everolimus, reference compound], in experiment [1] (setting [6]), the T/C stood at 42%, the TGI is given as 60% and the “Tumor volume (Day 28)” value is listed as 739 ± 206 mm^3.
As to `N.N.[Cl][Pt][Cl]` [Cisplatin, reference compound], the results for the IC50 in experiment [2] and in experiment [3] were 4370 nM and 4250 nM, respectively.
As for `Cc1nc(NC(=O)N2CCC[C@H]2C(N)=O)sc1-c1ccnc(C(C)(C)C(F)(F)F)c1` [Alpelisib, reference compound], the IC50 was above 2000 nM in experiment [4] (Homo sapiens, KYSE-150, 72 h); 2110 nM in experiment [4] (72 hours); above 2000 nM in experiment [5] (Homo sapiens, TE-1, 72 h); above 3000 nM in experiment [5] (72 hours).
As for `CN(C)C1CCN(C(=O)c2ccc(NC(=O)Nc3ccc(-c4nc(N5CCOCC5)nc(N5CCOCC5)n4)cc3)cc2)CC1` [PF05212384, reference compound], in experiment [1] (setting [7]), the T/C turned out to be 68%, the TGI is 44% and the “Tumor volume (Day 28)” value amounted to 971 ± 249 mm^3.
